In US10138253B2, “Imidazopyridine macrocycles as inhibitors of human immunodeficiency virus replication” (priority 2015, dated 2018):
Like-named read-outs stand apart in the source and are kept apart here.

How the values were obtained:
[1] = ether bond, 20-membered ring, PPh3/DIAD, THF
[2] = ether bond, PPh3/DIAD, THF
[3] = from COC(=O)[C@@H](OC(C)(C)C)c1c(C)c(C)c2nc(-c3cccc(-c4cc(F)c(F)cc4O)c3)c(C)n2c1N1CCC(C)(OCCOC[C@@H](C)O)CC1, 2.77 mM, 1.0 h, 2 steps
[4] = from COC(=O)[C@@H](OC(C)(C)C)c1c(C)c(C)c2nc(-c3cccc(-c4cc(F)ccc4O)c3)cn2c1N1CCC(C)(OCCOC[C@@H](C)O)CC1, 47.0 mM, 18.0 h
[5] = from COC(=O)[C@@H](OC(C)(C)C)c1c(C)cc2nc(-c3cccc(-c4ccc(C)cc4O)c3)cn2c1N1CCC(C)(OCCOC[C@@H](C)O)CC1, 1.41 mM, 1.0 h
[6] = from COC(=O)[C@@H](OC(C)(C)C)c1c(C)c(C)c2nc(-c3cccc(-c4c(O)cc(C)cc4F)c3)cn2c1N1CCC(C)(OCCOC[C@@H](C)O)CC1, 6.7 mM, 1.0 h, 2 steps
[7] = from COC(=O)[C@@H](OC(C)(C)C)c1c(C)cc2nc(-c3cccc(-c4c(O)cc(C)cc4F)c3)cn2c1N1CCC(C)(OCCOC[C@@H](C)O)CC1, 42.7 mM, 0.5 h, 2 steps

COC(=O)[C@@H](OC(C)(C)C)c1c(C)c(C)c2nc3c(C)n2c1N1CCC(C)(CC1)OCCOC[C@H](C)Oc1cc(F)c(F)cc1-c1cccc-3c1
ring closure, isolated yield [1, 3]: 30%
ring closure, yield of all isomers [2, 3]: 30%

COC(=O)[C@@H](OC(C)(C)C)c1c(C)c(C)c2nc3cn2c1N1CCC(C)(CC1)OCCOC[C@H](C)Oc1ccc(F)cc1-c1cccc-3c1
ring closure, isolated yield [1, 4]: 59%
ring closure, yield of all isomers [2, 4]: 59%

COC(=O)[C@@H](OC(C)(C)C)c1c(C)cc2nc3cn2c1N1CCC(C)(CC1)OCCOC[C@H](C)Oc1cc(C)ccc1-c1cccc-3c1
ring closure, isolated yield [1, 5]: 65%
ring closure, yield of all isomers [2, 5]: 65%

COC(=O)[C@@H](OC(C)(C)C)c1c(C)c(C)c2nc3cn2c1N1CCC(C)(CC1)OCCOC[C@H](C)Oc1cc(C)cc(F)c1-c1cccc-3c1
ring closure, isolated yield [1, 6]: 81%
ring closure, yield of all isomers [2, 6]: 81%

COC(=O)[C@@H](OC(C)(C)C)c1c(C)cc2nc3cn2c1N1CCC(C)(CC1)OCCOC[C@H](C)Oc1cc(C)cc(F)c1-c1cccc-3c1
ring closure, isolated yield [1, 7]: 6%
ring closure, yield of all isomers [2, 7]: 6%
